Laboratory results reported in article doi:10.1101/743898v3 (biorxiv, 2019).
Positions count from the first letter of the chain named.

Assays:
[1] = molecular target: T1, ZmHK1 (tobacco membrane; fused to GFP) (Zea mays, UniProt Q9FRY7); experiment: cytokinin binding assay, tobacco microsomal membranes
T1 sequence (Q9FRY7 1-974): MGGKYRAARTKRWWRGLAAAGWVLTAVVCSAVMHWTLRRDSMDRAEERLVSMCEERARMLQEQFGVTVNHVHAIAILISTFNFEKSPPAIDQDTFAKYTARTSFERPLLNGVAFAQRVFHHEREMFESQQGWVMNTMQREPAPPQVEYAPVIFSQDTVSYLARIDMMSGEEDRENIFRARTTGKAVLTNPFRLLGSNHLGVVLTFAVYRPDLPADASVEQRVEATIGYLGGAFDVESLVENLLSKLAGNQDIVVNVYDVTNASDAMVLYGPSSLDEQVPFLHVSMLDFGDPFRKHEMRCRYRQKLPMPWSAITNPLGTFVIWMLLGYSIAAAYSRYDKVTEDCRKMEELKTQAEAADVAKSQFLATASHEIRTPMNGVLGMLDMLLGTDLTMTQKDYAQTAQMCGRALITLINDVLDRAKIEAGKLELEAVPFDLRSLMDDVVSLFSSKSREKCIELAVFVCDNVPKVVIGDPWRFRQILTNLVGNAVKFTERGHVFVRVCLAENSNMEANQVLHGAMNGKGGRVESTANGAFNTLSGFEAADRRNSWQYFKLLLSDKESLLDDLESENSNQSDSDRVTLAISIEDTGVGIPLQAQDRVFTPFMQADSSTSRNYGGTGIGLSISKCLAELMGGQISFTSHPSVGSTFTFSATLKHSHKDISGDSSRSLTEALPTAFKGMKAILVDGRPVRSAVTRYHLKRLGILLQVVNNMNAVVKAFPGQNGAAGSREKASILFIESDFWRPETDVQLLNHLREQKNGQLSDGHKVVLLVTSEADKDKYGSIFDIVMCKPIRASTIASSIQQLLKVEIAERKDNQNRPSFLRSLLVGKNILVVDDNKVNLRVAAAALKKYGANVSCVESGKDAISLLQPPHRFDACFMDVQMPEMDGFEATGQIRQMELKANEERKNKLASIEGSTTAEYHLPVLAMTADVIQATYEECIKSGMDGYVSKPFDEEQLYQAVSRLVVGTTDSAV

[2] = molecular target: T2, ZmHK1 (tobacco membrane; fused to GFP) (Zea mays, UniProt Q9FRY7, P190L); experiment: as above
T2 sequence (Q9FRY7 1-974 P190L): T1 sequence (Q9FRY7 1-974) with P190L

Kd [1]	Kd [2]	SMILES
> 10000 nM		Nc1ncnc2nc[nH]c12 [Ade]
1.42 nM		c1ccc(CNc2ncnc3nc[nH]c23)cc1 [BA]
114 nM		C[C@H](CO)CCNc1ncnc2nc[nH]c12 [DZ]
	0.23 nM	CC(C)=CCNc1ncnc2nc[nH]c12 [iP]

SMILES	Kd [1]	Kd [2]
O=C(Nc1ccccc1)Nc1cnns1 [TD]	49.2 nM	
